Source: PubChem BioAssay AID179 (DTP/NCI, 2004)
Several values for one entry are separate records, joined by “and”; a condition that tells them apart may be missing. Equal values may be shown once. Activity calls are given as the source filed them.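 Rule for the calls: active = compounds giving half or more protection of infected cells from virus-caused growth loss, again on retest; inactive = the rest.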

Tested on: CEM cells HIV-1 protection, formazan growth assay
Test: NCI AIDS Antiviral Assay
Conditions: for IC50: measured here: growth of uninfected CEM cells
How it was run: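 Human CEM cells, uninfected and HIV-1-infected, exposed to five drug concentrations; growth measured by soluble formazan assay and scored as percent protection from infection, with protecting compounds retested.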

## CCOC(=O)N1CCN(c2nc(C)n(-c3ccccc3)c(=S)c2C#N)CC1
  EC50: > 200 µM
  IC50: > 200 µM

## C=C=C(C(=O)OC)S(=O)c1ccc([N+](=O)[O-])cc1[N+](=O)[O-] (configuration not stated)
  outcome: inactive

## COC(=O)NC(=O)c1cn(C2CCCCC2)c(=O)[nH]c1=O
  EC50: > 123 µM
  IC50: > 123 µM

## CN1Nc2ccccc2CC1=O
  EC50: > 1550 µM
  IC50: 55 µM

## O=c1cc(-c2ccccc2)nc(-n2[nH]c3c(c2=O)CCCC3)[nH]1
  EC50: > 50.1 µM
  IC50: 1.29 µM

## CC(C)(C)c1cc(C(P(=O)(c2ccccc2)c2ccccc2)P(=O)(c2ccccc2)c2ccccc2)cc(C(C)(C)C)c1O
  EC50: > 200 µM
  IC50: 3.24 µM

## CC(C)Cc1ccc(C(C)C(=O)O)cc1 (configuration not stated)
  EC50: > 1200 µM
  IC50: 389 µM

## C=C1C2=C(CCCC2)C(=O)OC12CCCCC2
  EC50: > 100 µM
  IC50: > 100 µM

## COC1CC(OC)C2OC(c3ccccc3)OCC2O1 (configuration not stated)
  outcome: inactive

## COc1ccc2c(c1[N+](=O)[O-])CC[C@@H]1[C@@H]2CC[C@]2(C)C(=O)CC[C@@H]12
  EC50: > 11 µM
  IC50: > 11 µM

## COc1cc([C@@H]2c3cc4c(cc3C(N)C3COC(=O)[C@@H]32)OCO4)cc(OC)c1O (some centres not stated)
  outcome: inactive

## O=C(c1ccc(Cl)cc1)N(C(=S)N1CCN(c2ccccc2)CC1)c1ccccc1
  EC50: > 12 µM
  IC50: 11.2 µM

## c1ccc([P+](CCN2Cc3ccccc3C2)(c2ccccc2)c2ccccc2)cc1
  EC50: > 200 µM
  IC50: 3.31 µM

## CC(C)(C)OC(=O)NCCc1cccc2c1oc1c(CCC(=O)O)cccc12
  EC50: > 309 µM
  IC50: 110 µM

## Cc1ccc(NC(=O)C(=O)Cc2cccc[n+]2[O-])cc1C
  EC50: > 91.2 µM
  IC50: > 91.2 µM

## N#Cc1ccccc1NC(=O)/C(=N\N)C(C(=O)c1ccncc1)C1OC(=O)c2ccccc21 (configuration not stated)
  outcome: inactive

## CCOC(=O)c1cc2c(nc1N)/C(=C/c1ccccc1)CCCC2
  EC50: > 200 µM
  IC50: 10.7 µM

## CC(=O)NCc1c(C(N)=O)ncn1Cc1ccccc1
  outcome: inactive

## C/C(=N/NC(=S)NCCc1ccccn1)c1cnccn1
  EC50: > 200 µM
  IC50: 8.71 µM

## CN(C)C(=S)NC(=S)Nc1ccc2ccccc2c1
  outcome: inactive

## Cn1nc(-c2ccccc2)c(C(=O)/C=C/c2ccc(Cl)cc2)c(N2CCCCC2)c1=O
  EC50: > 17.8 µM
  IC50: > 17.8 µM

## CC12CC3CC(C1)CC(N=[N+]=[N-])(C3)C2
  EC50: > 70.8 µM
  IC50: > 70.8 µM

## Cc1ncc([N+](=O)[O-])n1CCNCCCn1ccnc1[N+](=O)[O-]
  EC50: > 200 µM
  IC50: > 200 µM

## COc1cc(/C=C2\CCC(C)C3C2=NN(C(C)=O)C3c2cc(OC)c(OC)c(OC)c2)cc(OC)c1OC (configuration not stated)
  EC50: > 100 µM
  IC50: > 100 µM

## CN1c2ccc(Cl)cc2C2(C(=O)NN)C(C(=O)NN)N(C3CCCCC3)C(=O)C12N (configuration not stated)
  EC50: > 87.1 µM
  IC50: > 87.1 µM

## COC(O)C(=O)c1c2c(cc3c1CC1(Cc4cc5c(cc4C1)CCC5)C3)CCC2 (configuration not stated)
  EC50: > 200 µM
  IC50: 33.1 µM

## COC(C(=O)C(O)C(C)O)C1Cc2cc3cc(OC4CC(OC(C)=O)C(OC5CC(O)C(OC)C(C)O5)C(C)O4)cc(O)c3c(O)c2C(=O)C1OC1CC(OC2CC(OC3CC(C)(O)C(OC(=O)C(C)C)C(C)O3)C(O)C(C)O2)C(O)C(C)O1 (configuration not stated)
  EC50: > 2.09 µM
  IC50: 0.0107 µM and 0.00389 µM

## CCC[CH2][Sn]1([CH2]CCC)[O]CC(C)[O]1 (configuration not stated)
  outcome: inactive

## CCOC(=O)C1=C(NC(C)(C)C)OC/C1=N\NC(=O)Cc1ccccc1
  EC50: > 72.4 µM
  IC50: > 72.4 µM

## CN1Cc2ccccc2[C@H]2C(c3ccccc3)=NN(c3ccccc3)[C@H]21
  EC50: > 200 µM
  IC50: > 200 µM

## Cc1ccc(S(=O)(=O)N(CCC(=O)O)c2ccccc2)cc1
  EC50: > 200 µM
  IC50: > 200 µM

## C(=N\Nc1ccc2ccccc2n1)/c1ccccn1
  EC50: > 20 µM
  IC50: 1.1 µM

## CCC12CCCN(Cc3ccccc3)C1c1c([nH]c3ccccc13)C(C(=O)OC)C2 (configuration not stated)
  EC50: > 30.9 µM
  IC50: > 30.9 µM

## O=C(C(=NC12CC3CC(CC(C3)C1)C2)NNc1ccc([N+](=O)[O-])cc1[N+](=O)[O-])C(Br)C(=O)c1ccccc1 (configuration not stated)
  EC50: > 200 µM
  IC50: 107 µM

## CC(=O)n1c(O)c(N=Nc2ccccc2[N+](=O)[O-])c2ccccc21
  EC50: > 200 µM
  IC50: > 200 µM

## N#CC(NNC(=O)c1ccccc1O)c1ccccc1 (configuration not stated)
  EC50: > 9.33 µM
  IC50: 0.339 µM

## CC(=O)N1C=Cc2c(c(C)c3c([nH]c4ccccc43)c2C)C1
  EC50: > 200 µM
  IC50: 0.158 µM

## Cc1cc(=O)oc2c(CNC(CO)C(=O)O)c(O)ccc12 (configuration not stated)
  EC50: > 200 µM
  IC50: > 200 µM

## Cc1ccc(N=NN(C)C(C)C(O)Cc2ccccc2)cc1 (configuration not stated)
  EC50: > 200 µM
  IC50: 77.6 µM

## O=C1c2ccccc2C(=O)c2c1ccc1conc21
  outcome: inactive

## COC12C=CC(CC1)C(C)(C)C2OS(C)(=O)=O (configuration not stated)
  outcome: inactive

## COc1c(O)c2c(=O)cc(OC)c3c4c(OC)cc(=O)c5c(O)c(OC)c6c(c(c1C(C(C)=O)C6C(C)O)c23)c54 (configuration not stated)
  EC50: > 20 µM
  IC50: 0.316 µM

## Cn1c2ccccc2n2c(=O)c3c(c(C#N)c12)CCCC3
  EC50: > 7.24 µM
  IC50: > 7.24 µM

## COc1ccc(-c2c(C#N)c(-c3ccc(C)cc3)n(NS(=O)(=O)c3ccc(C)cc3)c(=O)c2C#N)cc1
  EC50: > 200 µM
  IC50: 17.4 µM

## CC(=O)OCC1OC(SC2=NC(=O)/C(=C/c3ccccc3)S2)C(OC(C)=O)C(OC(C)=O)C1OC(C)=O (configuration not stated)
  EC50: > 200 µM
  IC50: 32.4 µM

## COC(=O)CN1C(=O)c2cccc3cc([N+](=O)[O-])cc(c23)C1=O
  EC50: > 200 µM
  IC50: 21.9 µM

## COc1ccccc1N1C(=O)/C(=C\c2cccc(Oc3ccccc3)c2)SC1c1ccccc1 (configuration not stated)
  EC50: > 200 µM
  IC50: 52.5 µM

## Cn1c(=O)cc(CC(=O)O)c2ccccc21
  EC50: > 200 µM
  IC50: > 200 µM

## Cc1csc([C@H]2CCC3[C@@H]4CC=C5C[C@@H](OC(=O)CCC(=O)O)CC[C@]5(C)C4CC[C@@]32C)n1 (some centres not stated)
  EC50: > 52.5 µM
  IC50: 33.1 µM

## C/C(C=C(C#N)C#N)=C\c1ccc(N(C)C)cc1
  EC50: > 21.9 µM
  IC50: > 21.9 µM

## CCOC(=O)C(=O)c1c2cn(O)nc(OC)c-2nc1[N+](=O)[O-]
  EC50: > 813 µM
  IC50: 537 µM

## CC1(C)OC(=O)CC12CCN(Cc1ccccc1)CC2
  EC50: > 200 µM
  IC50: 195 µM

## O=c1c(O)c(-c2ccc(O)c(O)c2)oc2cc(O)cc(O)c12.[Zr]
  EC50: > 200 µM
  IC50: > 200 µM

## COC(=O)CCC1CCc2c(OC)ccc(O)c2C1=O (configuration not stated)
  outcome: inactive

## O=C1CC(c2ccccc2)C2(C(=O)NC(=S)NC2=O)C(c2ccccc2)C1 (configuration not stated)
  EC50: > 75.9 µM
  IC50: 55 µM

## CCCN(CCC)C(=O)COc1cc2c(O)c3c(O)c(C)c4c(c13)C(=O)C(C)(O/C=C/C(OC)C(C)C(OC(C)=O)C(C)C(O)C(C)C(O)C(C)/C=C/C=C(\C)C(=O)N2)O4 (configuration not stated)
  outcome: inactive

## O=NNc1ccc(S(=O)(=O)c2ccc3ccccc3c2)cn1
  EC50: > 200 µM
  IC50: 112 µM

## CC1=C(C(=O)N[C@@H](CC(C)C)C(=O)O)N2C(=O)[C@@H](NC(=O)C(N)c3ccccc3)[C@H]2SC1 (some centres not stated)
  EC50: 117 µM
  IC50: > 200 µM

## COC(=O)c1cc(C(=CCC2OCCO2)c2cc(Cl)c(OC)c(C(=O)OC)c2)cc(Cl)c1OC
  EC50: > 52.5 µM
  IC50: 38.9 µM

## [B]C(=O)NC(CC(C)C)C(=O)NC1c2ccsc2C(=O)C1O (configuration not stated) (tested in a mixture with another compound)
  EC50: > 200 µM
  IC50: > 200 µM

## COc1cc2c(c(C)c1O)[C@H]1Cc3ccccc3[C@H]1O2
  EC50: > 7.41 µM
  IC50: > 7.41 µM

## CCCCOP(=O)(OCCCC)c1ccccc1
  EC50: 0.0631 µM
  IC50: > 200 µM

## Cc1ccc2c(c1)C(O)(c1ccccc1)C(c1ccccc1)C(c1ccccc1)O2 (configuration not stated)
  EC50: > 200 µM
  IC50: 6.92 µM

## CC1(C)CNCC2(C)OCCCOC3(C)CNCC(C)(C)NC(=O)C(C)(CNCC(C)(C)NC3=O)OCCCOC(C)(CNCC(C)(C)NC2=O)C(=O)N1
  EC50: > 200 µM
  IC50: > 200 µM

## CC1c2ccccc2NC(=O)N1N1CCOCC1 (configuration not stated)
  EC50: > 200 µM
  IC50: > 200 µM

## CCOc1cnc([C@H]2CCC3[C@@H]4CC=C5C[C@@H](OC(=O)CCC(=O)O)CC[C@]5(C)C4CC[C@@]32C)s1 (some centres not stated)
  EC50: > 50.1 µM
  IC50: 32.4 µM

## CC(=O)OCC1OC(n2c3c(c(-c4cccc5ccccc45)c(C#N)c2=S)CCCC3)C(OC(C)=O)C(OC(C)=O)C1OC(C)=O (configuration not stated)
  EC50: > 200 µM
  IC50: 47.9 µM

## CC(=O)OC[C@]12[C@H](OC(C)=O)[C@H](OC(C)=O)[C@@H]3C(OC(C)=O)[C@@]14OC3(C)COC(=O)c1cccnc1CCC(C)C(=O)OC([C@H](OC(C)=O)[C@@H]2OC(=O)c1ccccc1)[C@]4(C)O (some centres not stated)
  EC50: > 38.9 µM
  IC50: > 38.9 µM

## CCOC(=O)C(NC(C)=O)[CH](c1ccc(OC)cc1)[Sn]([c]1ccccc1)([c]1ccccc1)[c]1ccccc1 (configuration not stated)
  EC50: > 200 µM
  IC50: 1.07 µM

## CC(C)OC(=O)Nc1c([N+](=O)[O-])cc(C(F)(F)F)cc1[N+](=O)[O-]
  outcome: inactive

## O=c1cn[nH]c2c(Br)cc(Br)cc12
  EC50: > 70.8 µM
  IC50: > 70.8 µM

## COC(=O)C12CC3CC(CC(C(=O)O)(C3)C1)C2
  EC50: > 759 µM
  IC50: > 759 µM

## Cc1cccc(NC(=O)C(=O)Cc2nc3ccccc3[nH]c2=O)c1C
  outcome: inactive

## Cc1ccc(NC(=O)CC/C(CC(=O)C(C)(C)C)=N\Nc2ccc([N+](=O)[O-])cc2[N+](=O)[O-])cc1C
  EC50: > 14.8 µM
  IC50: > 14.8 µM

## O=[N+]([O-])c1ccc2c(c1)c(OCc1ccccc1)nn2Cc1ccccc1
  EC50: > 200 µM
  IC50: 95.5 µM

## CCCCCC(/C=N/NC(N)=S)C(O)(C(F)(F)F)C(F)(F)F (configuration not stated)
  EC50: > 200 µM
  IC50: 30.2 µM

## NC(CO)(CO)CO
  EC50: > 200 µM
  IC50: > 200 µM

## Cc1cc(Cl)cc2c1NC(=O)C2(O)CC(=O)c1ccco1 (configuration not stated)
  EC50: > 117 µM
  IC50: 63.1 µM

## Cc1cc(C)c(C(=O)O)c(N)c1O
  outcome: inactive

## CC(=O)C1C(=O)NC(=O)C1=O (configuration not stated)
  EC50: > 1620 µM
  IC50: > 1620 µM

## Nn1c(SSSSc2nnc(-c3ccccc3)n2N)nnc1-c1ccccc1
  EC50: > 200 µM
  IC50: > 200 µM

## COc1ccccc1Cn1[nH]c(=O)c2cc([N+](=O)[O-])ccc21
  EC50: > 200 µM
  IC50: 63.1 µM

## CNc1ncc2nc(C(=O)O)c(=O)n(C)c2n1
  EC50: > 200 µM
  IC50: > 200 µM
